≈ marks a conversion by molar mass, not a printed value.
Tests used:
Type in all cases: cell-based
[1] = test system: VSV (Vesicular stomatitis virus); experiment: microbe, parasite or virus in culture; conditions: read-out: IC50 VSV
[2] = test system: human lung carcinoma A-549; experiment: in vitro antitumour activity in cell cultures of human lung carcinoma A-549; conditions: A549, A-549 cell culture
Description: (§1) The antitumour activities of Mycaperoxide A and Mycaperoxide B have been determined "in vitro" in cell cultures of mouse leukemia P-388, human lung carcinoma A-549 and human colon carcinoma HT-29. The procedure was carried out using the method described by Raymond J. Bergeron et al. Biochem Bioph. Res. Comm. 1984, 121(3), 848-854 and by Alan C Shroeder et al. J. Med. Chem. 1981, 24 1078-1083.

[3] = test system: mouse leukemia P-388; experiment: in vitro antitumour activity in cell cultures of mouse leukemia P-388; conditions: P388, P-388 cell culture
Description: as §1

[4] = test system: human colon carcinoma HT-29; experiment: in vitro antitumour activity in cell cultures of human colon carcinoma HT-29; conditions: HT-29 cell culture
Description: as §1

| Structure (SMILES) | IC50 [1] [µg/mL] | IC50 [2] [µg/mL] | IC50 [3] [µg/mL] | IC50 [4] [µg/mL] |
| --- | --- | --- | --- | --- |
| CC(C(=O)O)C1CCC(C)(CCC2(C)C(C)CCC3C(C)(C)CCCC32O)OO1 (centres unmarked) [Mycaperoxide A, mycaperoxide A] | 2 (≈ 4.87 µM) | 0.5 (≈ 1.22 µM) | 0.5 (≈ 1.22 µM) | 0.5 (≈ 1.22 µM) |
| CC(C(=O)O)C1CCC(C)(CCC2(O)C(C)CCC3C(C)(C)CCCC32C)OO1 (centres unmarked) [Mycaperoxide B, mycaperoxide B] | 4 (≈ 9.74 µM) | 1 (≈ 2.44 µM) | 1 (≈ 2.44 µM) | 1 (≈ 2.44 µM) |
